In patent publication US7090971B2, “Transglutaminase has intrinsic kinase activity” (priority 2004, dated 2006):
“Also recorded” adds a separate entry of the source.

Key:
[1] = system: T47D cell membranes; assay: Phosphorylation of IGFBP-3 by T47D cell membranes; assay type: biochemical, human; conditions: cystamine 20 μM (10 and 20 μM in FIG. 2C), MDC 200 μM, ROCK2 inhibitor 2 and 5 μM (FIG. 2B, 2C)
Procedure: (§1) Polystyrene tube were coated with streptavidin and blocked with bovine serum albumin, washed in saline and stored at −20° C. until used. Biotinylated IGFBP-3 (500 ng) was added in streptavidin-coated tubes for 2 h on ice. At the end of incubation, excess, unbound IGFBP-3 was removed. Tubes were placed on ice and phosphorylation reaction mixture containing 20 mM Tris buffered saline pH 7.5, 10 mM Mg/ATP, 60 μCi/ml ^32P-ATP was added. Reaction was initiated by the addition of membrane fraction and allowed to proceed for 30 min at 30° C. Reaction was stopped by addition of SDS-PAGE sample buffer, boiled for 7–10 min and analyzed on 11% gel. Subsequently gels were dried and processed for autoradiography. In some cases 2 μU of pure TG2 (Sigma-Aldrich, MO) or histidine-tagged full length human TG2 expressed using baculovirus expression system in insect cells and purified by Ni(II)-nitroacetate agarose chromatography was used to phosphorylate IGFBP-3 in presence or absence of TG2 specific inhibitors. In experiments where cell monolayers were used to phosphorylate IGFBP-3, cells were grown in 24-well culture plate to near confluence and washed with PBS to remove residual media and serum. Phosphorylation was then performed in 100 pI reaction mixture as above, containing 1 μg IGFBP-3 for 10 min at 37° C. At the end of incubation, reaction mixture was aspirated, reaction was stopped by addition of sample buffer and analyzed on 11% gel. In some experiments, cell monolayer were treated with TG2 inhibitor for 30 min prior to the phosphorylation reaction.
We assessed the effect of the TG2 and ROCK2 inhibitors on phosphorylation of IGFBP-3 by cell monolayers. We have previously shown that intact washed cells were able to phosphorylate IGFBP-3 immobilized on polystyrene tubes (Mishra and Murphy, 2003). T47D cell monolayers were incubated for 30 minutes in the presence of various concentrations of cystamine, an inhibitor of TG2. The washed cell monolayers were incubated with IGFBP-3 in the presence of ^32P-ATP for 10 minutes at 37° C. After termination of the incubation, the IGFBP-3 was analyzed by SDS-PAGE and autoradiography (FIG. 2A). […] Similar experiments were undertaken utilizing membrane preparations from both T47D and MCF-7 cells. As reported previously both T47D and MCF-7 cells were able to phosphorylate IGFBP-3. This process was inhibited by cystamine and MDC in both cells lines (FIG. 2B). DMSO the vehicle in which MDC was dissolved had no effect. Since TG2 has been found in association with ROCK2, a Rho-kinase (Singh et al., 2001, EMBO J., 20:2413–2423), and ROCK2 was present in the affinity purified cell membrane fractions, we investigated the effect of the ROCK2 inhibitor, R (+)trans-N-(4-pyridyl)-4-(1aminoethyl)-cyclohexanecarboxamide dihydrochloride. […]

[2] = system: T47D cell monolayers; assay: Phosphorylation of IGFBP-3 by T47D cell monolayers; assay type: cell-based, human
Procedure: as §1
We assessed the effect of the TG2 and ROCK2 inhibitors on phosphorylation of IGFBP-3 by cell monolayers. We have previously shown that intact washed cells were able to phosphorylate IGFBP-3 immobilized on polystyrene tubes (Mishra and Murphy, 2003). T47D cell monolayers were incubated for 30 minutes in the presence of various concentrations of cystamine, an inhibitor of TG2. […] After termination of the incubation, the IGFBP-3 was analyzed by SDS-PAGE and autoradiography (FIG. 2A). […]

[3] = molecular target: T1, TG2 (Homo sapiens, UniProt P21980); assay: IGFBP-3 kinase activity of anti-TG2 immunoprecipitates from solubilized membranes; assay type: biochemical; set-up: endogenous in cells; host or cells: T47D or MCF-7 cell membranes (anti-TG2 immunoprecipitate on protein A-agarose); conditions: cystamine 20 μM, ROCK2 inhibitor 5 μM (FIG. 3C)
T1 sequence (P21980 1-687): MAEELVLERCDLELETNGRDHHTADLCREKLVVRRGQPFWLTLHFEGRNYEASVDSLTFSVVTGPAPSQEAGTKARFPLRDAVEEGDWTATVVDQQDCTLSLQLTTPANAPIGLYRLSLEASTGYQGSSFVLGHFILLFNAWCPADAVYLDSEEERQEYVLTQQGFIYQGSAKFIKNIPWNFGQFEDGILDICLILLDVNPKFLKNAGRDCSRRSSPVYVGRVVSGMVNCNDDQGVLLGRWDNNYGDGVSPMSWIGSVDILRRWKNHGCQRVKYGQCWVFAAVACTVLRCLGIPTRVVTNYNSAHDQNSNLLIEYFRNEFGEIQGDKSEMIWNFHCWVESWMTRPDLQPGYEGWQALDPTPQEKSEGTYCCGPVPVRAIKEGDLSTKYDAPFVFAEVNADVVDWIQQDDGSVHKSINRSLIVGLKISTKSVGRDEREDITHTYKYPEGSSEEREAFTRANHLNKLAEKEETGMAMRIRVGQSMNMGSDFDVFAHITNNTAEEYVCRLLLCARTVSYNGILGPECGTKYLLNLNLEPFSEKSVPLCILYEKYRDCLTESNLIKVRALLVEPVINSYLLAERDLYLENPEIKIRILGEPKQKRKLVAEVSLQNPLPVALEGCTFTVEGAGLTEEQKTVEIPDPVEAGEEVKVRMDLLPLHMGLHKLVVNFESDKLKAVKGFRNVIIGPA
Procedure: To 200 μl of solubilized membranes from T47D of MCF-7 cells, 10 μl of anti-TG2 goat polyclonal antiserum (Upstate Biotechnology, Lake Placid, N.Y.) and incubated for 1 h at 4° C. 20 μl of protein A-agarose (Pierce) was added and further incubated on a rotating device overnight at 4° C. At the end of incubation the pellet was washed four times in ice cold PBS. The supernatant was discarded and the pellet was resuspended in 50 μl of kinase buffer. 10 μl of the resuspended sample was used for phosphorylation of 500 ng of IGFBP-3. The samples were analyzed by SDS-PAGE, autoradiography and immunoblotting with TG2 antiserum.
We next examined the effect of TG2 and ROCK2 antisera on IGFBP-3 kinase activity present in cell membrane preparations. Antiserum against TG2 but not ROCK2 antiserum was able to immunodeplete IGFBP-3 kinase activity from membrane preparations (FIG. 3A). When the immunoprecipitates were analyzed for kinase activity, the precipitates obtained with TG2 antiserum but not those obtained with ROCK2 antiserum had kinase activity. Furthermore, the IGFBP-3 kinase activity present in the immunoprecipitates was inhibited by cystamine but not by the ROCK2 inhibitor.

[4] = molecular target: T1, TG2; assay: IGFBP-3 kinase activity of recombinant human TG2; assay type: biochemical; set-up: histidine-tagged full length human TG2 expressed using baculovirus expression system in insect cells; histidine tag; made in house; host or cells: insect cells (baculovirus expression system); conditions: for effect on phosphorylation of IGFBP-3 by human recombinant TG2: cystamine 20 μM, MDC 200 μM (FIG. 4A)
Procedure: as §1
Purified guinea pig liver TG2 and human recombinant TG2 both were able to phosphorylate IGFBP-3 (FIG. 4A). This process was inhibited cystamine and MDC. The related binding protein IGFBP-5 was also phosphorylated by TG2 whereas IGFBP-1 was not phosphorylated by TG2 (FIG. 4B). […] Fibronectin, another reported substrate for TG2 (Akimov and Belkin, 2001, J. Cell Sci., 114:2989–3000), was not phosphorylated by this enzyme under the conditions we used to phosphorylate IGFBP-3 (FIG. 4B). […]

[5] = system: MCF-7 cell membranes; assay: Phosphorylation of IGFBP-3 by MCF-7 cell membranes; assay type: biochemical, human; conditions: cystamine 20 μM, MDC 200 μM (FIG. 2B)
Procedure: as §1, with “In experiments where cell monolayers were used to phosphorylate IGFBP-3, cells were grown in 24-well culture plate to near confluence and washed with PBS to remove residual media and serum. Phosphorylation was then performed in 100 pI reaction mixture as above, containing 1 μg IGFBP-3 for 10 min at 37° C.” left out, “In some experiments, cell monolayer were treated with TG2 inhibitor for 30 min prior to the phosphorylation reaction.” left out
We assessed the effect of the TG2 and ROCK2 inhibitors on phosphorylation of IGFBP-3 by cell monolayers. […] After termination of the incubation, the IGFBP-3 was analyzed by SDS-PAGE and autoradiography (FIG. 2A). […]

[6] = molecular target: T2, guinea pig liver TG2 (UniProt P08587); assay: IGFBP-3 kinase activity of purified guinea pig liver TG2; assay type: biochemical; conditions: cystamine 20 μM, MDC 200 μM (FIG. 4A)
T2 construct: Both TG2 purified from guinea pig liver and recombinant human TG2 expressed in insect cells were able to phosphorylate IGFBP-3; purchased Sigma-Aldrich, MO; host or cells: guinea pig liver (tissue-purified)
T2 sequence (P08587 1-690): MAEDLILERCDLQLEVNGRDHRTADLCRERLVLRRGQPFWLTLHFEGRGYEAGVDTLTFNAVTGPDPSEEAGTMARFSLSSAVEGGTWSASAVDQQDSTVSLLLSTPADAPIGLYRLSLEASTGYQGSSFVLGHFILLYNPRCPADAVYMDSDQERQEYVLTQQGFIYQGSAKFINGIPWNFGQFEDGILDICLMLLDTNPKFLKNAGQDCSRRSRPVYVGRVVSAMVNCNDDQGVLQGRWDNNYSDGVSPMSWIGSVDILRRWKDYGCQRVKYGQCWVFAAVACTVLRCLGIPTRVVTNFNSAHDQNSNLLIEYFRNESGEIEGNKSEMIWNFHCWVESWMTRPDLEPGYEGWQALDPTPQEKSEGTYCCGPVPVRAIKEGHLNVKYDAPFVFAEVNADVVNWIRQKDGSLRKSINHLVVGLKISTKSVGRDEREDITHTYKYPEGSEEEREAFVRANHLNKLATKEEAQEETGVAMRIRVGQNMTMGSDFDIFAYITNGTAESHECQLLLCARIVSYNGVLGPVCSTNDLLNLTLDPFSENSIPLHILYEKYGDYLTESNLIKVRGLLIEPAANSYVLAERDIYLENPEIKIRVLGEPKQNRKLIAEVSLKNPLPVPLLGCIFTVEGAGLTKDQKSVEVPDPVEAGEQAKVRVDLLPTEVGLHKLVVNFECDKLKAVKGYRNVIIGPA
Procedure: as §1, with “Phosphorylation was then performed in 100 pI reaction mixture as above, containing 1 μg IGFBP-3 for 10 min at 37° C.” left out, “In some experiments, cell monolayer were treated with TG2 inhibitor for 30 min prior to the phosphorylation reaction.” left out

[7] = molecular target: T1, TG2; assay: Cross-linking activity of recombinant TG2 (polymerization of IGFBP-3); assay type: biochemical; set-up: histidine-tagged full length human TG2 expressed using baculovirus expression system in insect cells; histidine tag; made in house; host or cells: insect cells (baculovirus expression system); conditions: recombinant TG2, increasing calcium concentration (FIG. 4C)
[8] = T47D cell monolayers pre-incubated 30 minutes with inhibitor, 32P-ATP, 10 minutes at 37° C., autoradiography (FIG. 2A)

SMILES | effect on phosphorylation of IGFBP-3 by T47D cell membranes [1] | effect on IGFBP-3 kinase activity of breast cancer cell monolayers ([2]; breast cancer cell monolayers (FIG. 2A)) | effect on IGFBP-3 kinase activity present in anti-TG2 immunoprecipitates [3] | effect on phosphorylation of IGFBP-3 by human recombinant TG2 [4] | effect on phosphorylation of IGFBP-3 by MCF-7 cell membranes [5] | effect on phosphorylation of IGFBP-3 by T47D cell membranes ([1]; listed as monodansyl cadaverine) | effect on phosphorylation of IGFBP-3 by purified guinea pig liver TG2 [6] | effect of increasing calcium concentration on kinase activity of TG2 ([4]; recombinant TG2, increasing calcium concentration (FIG. 4C)) | effect of increasing calcium concentration on polymerization of IGFBP-3 (cross-linking activity of TG2) [7] | concentration at which complete inhibition of IGFBP-3 phosphorylation was apparent [2, 8] | concentration at which inhibition of IGFBP-3 phosphorylation was seen (as little as) [2, 8]
C[C@@H](N)[C@H]1CC[C@H](C(=O)Nc2ccncc2)CC1.Cl.Cl (relative stereo) [ROCK2 inhibitor, R (+)trans-N-(4-pyridyl)-4-(1aminoethyl)-cyclohexanecarboxamide dihydrochloride] | no effect | no effect | not |  |  |  |  |  |  |  | 
CN(C)c1cccc2c(S(=O)(=O)NCCCCCN)cccc12 [MDC, monodansyl cadaverine] | inhibited |  |  | inhibited | inhibited | abolished | inhibited |  |  |  | 
[Ca+2] [calcium] |  |  |  |  |  |  |  | decrease in the kinase activity; also recorded: inhibited in a concentration dependent fashion | increase in polymerization |  | 
NCCSSCCN [cystamine] | inhibited; also recorded: abolished |  | inhibited | inhibited | inhibited |  | inhibited |  |  | 50 µM | 20 µM
